Where “and” joins values, the source holds several entries; their conditions need not be identical. Equal entries are not always repeated.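 1) Cells in 96-well plates. 2) Compound, 48 h, 5 concentrations. 3) Linear interpolation between surrounding doses. 4) Unreached endpoint = highest concentration. GI50 = concentration required for 50% inhibition of growth. TGI marks complete inhibition of growth.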
How the values were obtained:
Experiment in all cases: DTP human tumour cell line panel, 48 h
CCRF-CEM leukemia = tested on: CCRF-CEM leukemia
DU-145 prostate = tested on: DU-145 prostate
HCT-15 colon = tested on: HCT-15 colon
HT29 colon = tested on: HT29 colon
IGROV1 ovarian = tested on: IGROV1 ovarian
OVCAR-8 ovarian = tested on: OVCAR-8 ovarian
SNB-19 CNS = tested on: SNB-19 CNS
SW-620 colon = tested on: SW-620 colon
LOX IMVI melanoma = tested on: LOX IMVI melanoma
UACC-62 melanoma = tested on: UACC-62 melanoma

Structure (SMILES)	TGI (CCRF-CEM leukemia)	TGI (DU-145 prostate)	TGI (HCT-15 colon)	TGI (HT29 colon)	TGI (IGROV1 ovarian)	TGI (OVCAR-8 ovarian)	TGI (SNB-19 CNS)	TGI (SW-620 colon)	TGI (LOX IMVI melanoma)	TGI (UACC-62 melanoma)	GI50 (HCT-15 colon)	GI50 (HT29 colon)	GI50 (IGROV1 ovarian)	GI50 (SNB-19 CNS)	GI50 (SW-620 colon)	GI50 (CCRF-CEM leukemia)	GI50 (LOX IMVI melanoma)	GI50 (OVCAR-8 ovarian)	GI50 (UACC-62 melanoma)	GI50 (DU-145 prostate)
O=C(CCl)N1CCN(c2ccccn2)CC1	69.2 µM	> 100 µM	> 10 µM	32.3 µM	45.7 µM	60.8 µM	> 100 µM	51.6 µM	–	–	–	–	–	–	–	–	–	–	–	–
O=C1CC[C@@H](S(=O)(=O)c2ccccc2)[C@H](/C=C/c2ccccc2)O1	> 100 µM	–	> 100 µM	> 100 µM	> 100 µM	> 100 µM	> 100 µM	> 100 µM	> 100 µM	> 100 µM	–	–	–	–	–	–	–	–	–	–
C=C1C2CCCC1C1(S(C)(=O)=O)CCCCC21O (stereo not given)	–	–	> 100 µM	> 100 µM	> 100 µM	> 100 µM	> 100 µM	> 100 µM	–	> 100 µM	–	–	–	–	–	–	–	–	–	–
CN(C)CC1CCCC/C1=N\OC(=O)c1ccccc1 (stereo not given)	> 100 µM	–	> 100 µM	> 100 µM	> 100 µM	> 100 µM	–	> 100 µM	> 100 µM	> 100 µM	–	–	–	–	–	–	–	–	–	–
CC[C@@]1(O)C(=O)OCc2c1cc1n(c2=O)Cc2cc3cc(O)ccc3nc2-1	–	0.0786 µM	20.8 µM and 42.5 µM	18.4 µM	22.8 µM and 2.67 µM	2.47 µM and 0.477 µM	75 µM and > 23.4 µM	22.9 µM and 3.78 µM	1.17 µM and 0.224 µM	0.0795 µM and 0.0565 µM	0.355 µM	0.16 µM and 0.167 µM	0.238 µM	0.00946 µM	0.0179 µM and < 0.0154 µM	–	–	–	–	–
C=CCc1cc(OC)c(O)c(C(=O)/C=C/c2ccc(OC)c(OC)c2)c1	56.4 µM	–	–	33.1 µM	> 100 µM	–	30.5 µM	97.1 µM	91.8 µM	52.2 µM	–	–	–	–	–	–	–	–	–	–
CC(=O)[CH-]C(=O)c1ccccc1.CC(=O)[CH-]C(=O)c1ccccc1.CC(=O)[CH-]C(=O)c1ccccc1.[Cl-].[Hf+4]	> 100 µM	–	> 100 µM	> 100 µM	> 100 µM	> 100 µM	–	> 100 µM	92.2 µM	> 100 µM	23.9 µM	19.1 µM	47 µM	–	52.2 µM	9.36 µM	14.4 µM	27.9 µM	29.7 µM	–
NC(N)=NCCCC(Nc1c2ccccc2nc2ccccc12)C(=O)O (stereo not given)	> 100 µM	–	> 100 µM	> 100 µM	–	> 100 µM	–	> 100 µM	> 100 µM	–	–	–	–	–	–	–	–	–	–	–
[pH]1p2[pH]p3p1p3[pH]2.c1cc[c]([Ge]([c]2ccccc2)[c]2ccccc2)cc1.c1cc[c]([Ge]([c]2ccccc2)[c]2ccccc2)cc1.c1cc[c]([Ge]([c]2ccccc2)[c]2ccccc2)cc1	> 100 µM	–	–	34 µM	62.5 µM	35.3 µM	27.2 µM	29.9 µM	30.4 µM	31 µM	–	17.6 µM	30 µM	14.1 µM	16.3 µM	28 µM	14.4 µM	13.5 µM	14.3 µM	–
O=C(Nc1ccc(Nc2ccc(NC(=O)c3ccccc3)c3c2C(=O)c2ccccc2C3=O)c2c1C(=O)c1ccccc1C2=O)c1ccccc1	> 100 µM	–	> 100 µM	–	> 100 µM	> 100 µM	> 100 µM	> 100 µM	–	> 100 µM	–	–	–	–	–	–	–	–	–	–
CC(=O)CCC[C@@H](C)[C@@H]1O[C@H]([C@@]2(C)CCC(=O)O2)CC2[C@H]1OC(=O)C21CC1 (stereo not given in full)	> 100 µM	–	> 100 µM	> 100 µM	> 100 µM	> 100 µM	> 100 µM	> 100 µM	> 100 µM	> 100 µM	> 100 µM	> 100 µM	55 µM	> 100 µM	> 100 µM	> 100 µM	77.1 µM	> 100 µM	> 100 µM	–
COc1ccc(C(=O)C(c2ccc(OC)cc2)C2(O)C(=O)Nc3c(Cl)cc(Cl)cc32)cc1 (stereo not given)	44.2 µM	–	49.8 µM	42.4 µM	–	56.2 µM	56 µM	39.1 µM	44 µM	–	–	–	–	–	–	–	–	–	–	–
COc1c(CC(C)=O)c2ccccc2n1C(C)=O	> 100 µM	–	> 100 µM	> 100 µM	> 100 µM	> 100 µM	> 100 µM	> 100 µM	–	> 100 µM	–	–	–	–	–	–	–	–	–	–
COC(=O)COc1ccccc1/C=C1/N=C(c2ccccc2)N(c2c(C)n(C)n(-c3ccccc3)c2=O)C1=O	–	> 100 µM	> 100 µM	> 100 µM	> 100 µM	> 100 µM	> 100 µM	> 100 µM	> 100 µM	> 100 µM	> 100 µM	> 100 µM	46.1 µM	> 100 µM	> 100 µM	–	76.5 µM	> 100 µM	83.9 µM	> 100 µM
O=C(CCl)N1CCN(c2ccccc2)CC1	> 100 µM	> 100 µM	39.2 µM	41.4 µM	51.7 µM	97.2 µM	> 100 µM	54.3 µM	–	–	–	–	–	–	–	–	–	–	–	–
CS(=O)(=O)ON1C(=O)c2ccc(N)cc2C1=O	> 76.7 µM	–	> 100 µM	> 100 µM	> 100 µM	60.8 µM	> 100 µM	> 100 µM	> 100 µM	> 100 µM	–	–	–	–	–	–	–	–	–	–
Cc1[nH]c2ccccc2c1/C=C/c1c(C)[nH]c2ccccc12	> 100 µM	–	> 100 µM	> 100 µM	> 100 µM	> 100 µM	–	> 100 µM	–	> 100 µM	–	–	–	–	–	–	–	–	–	–
O=C1C=C(Nc2cc(Cl)ccc2Cl)c2ccccc2C1=O	–	–	> 100 µM	> 100 µM	> 100 µM	56.9 µM	> 100 µM	> 100 µM	–	31.4 µM	–	–	–	–	–	–	–	–	–	–
COc1ccc(N=Nc2c(-c3ccccc3)nn(C(=O)CC(=O)Nc3ccc(OC)cc3)c2-c2ccccc2)cc1	53.1 µM	–	> 100 µM	> 100 µM	> 100 µM	> 100 µM	> 100 µM	> 100 µM	> 100 µM	> 100 µM	–	–	–	–	–	–	–	–	–	–
CCN(CC)Cc1cc(Nc2ccnc3ccc(OC)cc23)ccc1O	–	16.8 µM	34 µM	4.45 µM	–	34.5 µM	> 100 µM	19.7 µM	6.48 µM	20.9 µM	3.56 µM	1.81 µM	–	8.4 µM	3.6 µM	–	2.36 µM	7.21 µM	5.78 µM	3.93 µM

Source: PubChem BioAssay (NCI)
